For orientation: IC50 means the concentration that inhibits the measured activity by half.

Data on 8 molecules can be found in patent publication US10723727B2, “Tubulysin analogs and methods for their preparation” (priority 2016, dated 2020).

Molecules are shown by their SMILES.

The test system of assay [1] is N87 (gastric cancer) cells. The assay can be described thus: In vitro cell assay (MTS cell viability), N87. The class given is cell-based. The conditions noted are these: 96 h, free compounds; 96 hours after treatment. The gist of the method:
(§1)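 Cells seeded 24 h before treatment with antibody-drug conjugates or free compounds, 3-fold serial dilutions at 10 concentrations in duplicate. Viability read by MTS assay 96 h after treatment as % of untreated control; IC50 from four-parameter logistic fit.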

Assay [2] has as its system HT-29 cells. Put plainly: In vitro cell assay (MTS cell viability), HT-29 (target non-expressing). In kind it is cell-based. The settings on record: Homo sapiens, HT-29, 96 h, free compounds; 96 hours after treatment; read-out: HT29 IC50. Here is the method: In Vitro Cell Assay Procedure
Target expressing (BT474 (breast cancer), N87 (gastric cancer), HCC1954 (breast cancer), MDA-MB-361-DYT2 (breast cancer)) or non-expressing (HT-29) cells were seeded in 96-well cell culture plates for 24 hours before treatment. Cells were treated with 3-fold serially diluted antibody-drug conjugates or free compounds (i. e. no antibody conjugated to the drug) in duplicate at 10 concentrations. Cell viability was determined by CellTiter 96® AQueous One Solution Cell Proliferation MTS Assay (Promega, Madison Wis.) 96 hours after treatment. Relative cell viability was determined as percentage of untreated control. IC50 values were calculated using a four parameter logistic model #203 with XLfit v4. 2 (IDBS, Guildford, Surry, UK).

For assay [3], the system named is MDA-MB-361-DYT2 (breast cancer) cells. The assay can be described thus: In vitro cell assay (MTS cell viability), MDA-MB-361-DYT2. In kind it is cell-based. The settings on record: 96 h, free compounds; 96 hours after treatment. The gist of the method: as §1
Assay [4] has as its target T1, tubulin/RB3-stathmin-like-domain (RB3-SLD-tdm) complex (Sus scrofa, UniProt P02550+P02554).
T1 construct: purchased Cytoskeleton, Inc. T240; host or cells: RB3-SLD was made in house in E. coli
Put plainly: Tubulin Peptide-Binding Site Competition Assay (fluorescence polarization). The settings on record: FP competition with BODIPY-labeled vinca peptide probe; read after five hours at 22° C.; read-out: Tubulin Peptide-Binding Site Competition Assay IC50. The arrangement: species or system Porcine. The gist of the method:
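The BODIPY vinca-peptide probe was premixed with test compound and then added to porcine tubulin/RB3-SLD, at final concentrations of 3 nM probe, 6 nM tubulin and 100 nM RB3-SLD. The buffer was PIPES pH 7.0 with Tween 20, MgCl2 and EGTA, and 11-point dilutions were run in duplicate. IC50 was fitted from the fluorescence polarization decrease and converted to Ki.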
For orientation: In fluorescence polarisation assays a small probe gives low polarisation when free and higher when bound to something large.

Turning to `CC[C@H](C)[C@H](NC(=O)[C@@]1(C)CCCN1C)C(=O)N(C)[C@H](C[C@@H](OC(C)=O)c1nc(C(=O)NCC2(c3ccccc3)CC2)cs1)C(C)C` [#B53, 1,2-dimethyl-D-prolyl-N-[(1R,3R)-1-(acetyloxy)-4-methyl-1-(4-{[(1-phenylcyclopropyl)methyl]carbamoyl}-1,3-thiazol-2-yl}pentan-3-yl]-N-methyl-L-isoleucinamide], the IC50 in assay [1] came to 52.4 nM; in assay [2], 45.1 nM; in assay [3] it was 34 nM; in assay [4], 12.9 nM.

Consider `CC[C@H](C)[C@H](NC(=O)[C@@]1(C)CCCN1C)C(=O)N(C)[C@H](C[C@@H](OC(C)=O)c1nc(C(=O)N[C@H](CNS(C)(=O)=O)Cc2ccccc2)cs1)C(C)C` [#B58, 1,2-dimethyl-D-prolyl-N-{(1R,3R)-1-(acetyloxy)-4-methyl-1-[4-({(2S)-1-[(methylsulphonyl)amino]-3-phenylpropan-2-yl}carbamoyl)-1,3-thiazol-2-yl]pentan-3-yl}-N-methyl-L-isoleucinamide], for which the IC50 in assay [1] was found to be 5.63 nM; in assay [2], 1.49 nM; in assay [3] it was 2.26 nM; in assay [4], 5 nM.

`CC[C@H](C)[C@H](NC(=O)[C@@]1(C)CCCN1C)C(=O)N(C)[C@H](C[C@@H](OC(C)=O)c1nc(C(=O)N[C@H](COCc2ccccc2)Cc2ccccc2)cs1)C(C)C` [#B61, 1,2-dimethyl-D-prolyl-N-[(1R,3R)-1-(acetyloxy)-1-(4-{[(2S)-1-(benzyloxy)-3-phenylpropan-2-yl]carbamoyl}-1,3-thiazol-2-yl)-4-methylpentan-3-yl]-N-methyl-L-isoleucinamide]: the IC50 in assay [1] is 38.5 nM; in assay [2], 14.7 nM; in assay [3], 23.4 nM; in assay [4], 19.1 nM.

As for `CC[C@H](C)[C@H](NC(=O)[C@@]1(C)CCCN1C)C(=O)N(C)[C@H](C[C@@H](OC(C)=O)c1nc(C(=O)N[C@@H](Cc2ccccc2)C(O)c2nccs2)cs1)C(C)C` (stereo partly drawn) [#B62, 1,2-dimethyl-D-prolyl-N-[(1R,3R)-1-(acetyloxy)-1-(4-{[(2S)-1-hydroxy-3-phenyl-1-(1,3-thiazol-2-yl)propan-2-yl]carbamoyl}-1,3-thiazol-2-yl)-4-methylpentan-3-yl]-N-methyl-L-isoleucinamide], the half-inhibitory concentration (IC50) amounted to 10.4 nM in assay [1], 2.26 nM in assay [2], 2.65 nM in assay [3] and 4.7 nM in assay [4].

Consider `CC[C@H](C)[C@H](NC(=O)[C@@]1(C)CCCN1C)C(=O)N(C)[C@H](C[C@@H](OC(C)=O)c1nc(C(=O)NCCc2cscn2)cs1)C(C)C` [#B76, 1,2-dimethyl-D-prolyl-N-[(1R,3R)-1-(acetyloxy)-4-methyl-1-(4-{[2-(1,3-thiazol-4-yl)ethyl]carbamoyl}-1,3-thiazol-2-yl)pentan-3-yl]-N-methyl-L-isoleucinamide], for which the IC50 turned out to be 87.7 nM in assay [1], 37.4 nM in assay [2], 42 nM in assay [3] and 19.9 nM in assay [4].

For `CC[C@H](C)[C@H](NC(=O)[C@@]1(C)CCCN1C)C(=O)N(C)[C@H](C[C@@H](OC(C)=O)c1nc(C(=O)N[C@@H](Cc2ccccc2)c2nccs2)cs1)C(C)C` [#B78, 1,2-dimethyl-D-prolyl-N-[(1R,3R)-1-(acetyloxy)-4-methyl-1-(4-{[(1S)-2-phenyl-1-(1,3-thiazol-2-yl)ethyl]carbamoyl}-1,3-thiazol-2-yl)pentan-3-yl]-N-methyl-L-isoleucinamide], the IC50 was determined as 39.9 nM in assay [1], 14.5 nM in assay [2], 19.9 nM in assay [3] and 9.3 nM in assay [4].

As for `CC[C@H](C)[C@H](NC(=O)[C@@]1(C)CCCN1C)C(=O)N(C)[C@H](C[C@@H](OC(C)=O)c1nc(C(=O)NCCn2nnc3ccccc32)cs1)C(C)C` [#B79, 1,2-dimethyl-D-prolyl-N-[(1R,3R)-1-(acetyloxy)-1-(4-{[2-(1H-benzotriazol-1-yl)ethyl]carbamoyl}-1,3-thiazol-2-yl)-4-methylpentan-3-yl]-N-methyl-L-isoleucinamide], the IC50 in assay [1] was 11.2 nM; in assay [2], 4.39 nM; in assay [3], 5.69 nM; in assay [4], 8.6 nM.

Regarding `CC[C@H](C)[C@H](NC(=O)[C@@]1(C)CCCN1C)C(=O)N(C)[C@H](C[C@@H](OC(C)=O)c1nc(C(=O)N[C@@H](Cc2ccc(N)cc2)c2nccs2)cs1)C(C)C` [#B80, 1,2-dimethyl-D-prolyl-N-[(1R,3R)-1-(acetyloxy)-1-(4-{[(1S)-2-(4-aminophenyl)-1-(1,3-thiazol-2-yl)ethyl]carbamoyl}-1,3-thiazol-2-yl)-4-methylpentan-3-yl]-N-methyl-L-isoleucinamide], the half-inhibitory concentration (IC50) in assay [1] was 18.5 nM; in assay [2] it was 4.63 nM; in assay [3], 4.21 nM; in assay [4], 6.5 nM.
